Data taken from publication PMC10894092, “Characterization of a recombinant Aspergillus niger GZUF36 lipase immobilized by ionic liquid modification strategy” (Applied Microbiology and Biotechnology, 2024).

Tested on: T1, PEXANL1
T1 construct: gene EXANL1; recombinant extracellular lipase, secreted/purified from Pichia pastoris GS115
Assay: p-nitrophenol release at […] nm, Lineweaver-Burk
Type: biochemical, Aspergillus niger
Conditions: free enzyme; pH 5.0, 45 °C; 5-30 mM substrate range; phosphate-citrate buffer, substrate stock in 2-propanol

- Km: 2650 µM
Structure (SMILES): CCCCCCCCCCCCCCCC(=O)Oc1ccc([N+](=O)[O-])cc1 [p-nitrophenyl palmitate]
